Experimental data from US11420962B2, “Indene derivatives useful in treating pain and inflammation” (TARO PHARMACEUTICALS INC., priority 2018, dated 2022).

How the values were obtained:
Rat DRG = assay: Rat dorsal root ganglion excitability response (EFS, Ca2+ transients); assay type: cell-based; settings: Rattus norvegicus; Table 3; electrical field stimulation, Ca5 indicator; read-out: Scoring (EC50, Rat DRG excitability)
Summary of the method: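 Adult rat DRG cells cultured for 2 days were loaded with the Ca5 dye 1 h before electrical field stimulation under four protocols. Compounds were tested at six concentrations (typically top 30 μM, 1:3 steps, duplicate), added either 24 h before or directly before EFS. The read-out was the per-well peak/baseline fluorescence ratio change, with imaging used to check for toxicity.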

Mice (male, C57Bl/6) = assay: Formalin pain assay in mice; assay type: in vivo; settings: Table 7; formalin 2.5%, left plantar
Description: Mice (male, C57BL/6) were placed singly in a Perspex chamber for approximately 30 min on three successive days to acclimate and thereby reduce stress-induced behaviors. On the fourth day, the experimental animals received a 25 μl injection of 2.5% formalin beneath the left plantar skin using a 29-gauge syringe. […] The total time spent on flinches/licking/biting of the hind paw was recorded by visual observation for every 5 min period/interval for total observation duration of 60 min in two phases, the early phase (0-5 min) and the late phase (15-40 min). Observers were blinded to the treatment group allocation.
For test compounds, the % protection from 0-60 min was used to assess activity. Scoring for the test compounds was as follows: “A” represents a % protection of 81 to 100%, “B” represents a % protection of 61 to 80%, “C” represents a % protection of 31 to 60% and “D” represents a % protection of 0 to 30%.

T cells = assay: T cell proliferation (anti-CD3/anti-CD28 dynabeads, CCK-8); assay type: cell-based, mice; settings: Table 4, mouse T cells, 72 hours after dynabeads, read-out: Scoring (IC50, cell proliferation)
Description: Spleens were obtained from six male, CD-1 outbred mice, approximately 8 weeks old. Cells were harvested under sterile conditions by forcing each spleen though a cell filter (pore size 100 μm diameter). A homogenous cell suspension was obtained by washing the cells in fresh medium and passing cells through a smaller cell filter (pore size 70 μm).
Untouched T cells were isolated using the Pan T cell isolation kit (Miltenyi Biotech). Briefly, cells were counted and incubated with the required volume of antibody cocktail for 5 minutes at 4° C. before addition of microbeads and incubation for 10 minutes at 4° C. Labeled cells were retained in a magnetic column while unlabeled cells (T cells) passed through the column and were retained for use in the assay.
Cell viability was assessed by Trypan Blue exclusion and found to be >99% prior to transfer to plates. Isolated T cells were seeded out in 96 well plates at a density of 50,000 cells per well and allowed to incubate for 60 minutes in a humidified cell culture (37° C., 5% CO2) incubator prior to compound treatment. The media used for this assay (TexMACS, Miltenyi Biotech) was previously optimized for proliferation of T cells in serum free conditions.
Representative compounds of the invention (i.e., test compounds) were prepared as 30 mM stocks in 100% DMSO. Test compounds were initially diluted in media to yield 3 mM stocks before an additional 1:10 dilution in media was performed to yield working stocks of 300 μM (1% DMSO). Subsequent dilutions were performed in media (supplemented with 1% DMSO). When added to the assay plates (1:10 dilution), these yielded final concentrations in the assay plates of in 0.1% DMSO. The reference compound, Cyclosporin A, was prepared in an identical manner as above.
Unstimulated and Stimulated Control wells received an identical volume of TexMACS media/1% DMSO at this time, resulting in a final concentration of 0.1% DMSO across the plate. Mouse anti-CD3/anti-CD28 dynabeads were prepared (following the manufacturers' instructions) in TexMACS media and added to appropriate wells to achieve a final concentration of 1 bead per cell. Unstimulated Control wells then received an identical volume of TexMACS. Plates were centrifuged 72 hours after addition of dynabeads, (300×g for 3 minutes) to pellet the cells and 60% of the supernatant was removed to a fresh plate for analysis by ELISA. After removal of 60% of the supernatant for subsequent ELISA, cell proliferation was assessed using the CCK-8 assay.
Average response by the standard compound, cyclosporin A, was 1 uM.

[1] = Metabolism by human liver microsomes; assay type: in vitro ADME; settings: Table 8; 10 µM, in the presence of NADPH, 1 mg/mL protein
Description: Representative compounds of the invention (i.e., test compounds) and the positive control, 7-ethoxycoumarin, were prepared as stock solutions at 10 mM in DMSO and eventually diluted to 10 μM in the test plate, with an appropriate amount of acetonitrle and tris HCl buffer. Final DMSO and acetonitrile concentrations were […] and 0.5% respectively. NADPH was prepared in tris HCl buffer to a stock of 10 mM. A frozen aliquot of live microsomes was retrieved from the freezer (−80° C.) and thawed by placing the tube on wet ice. After thawing, the tubes were gently mixed and the required amount, transferred to tris HCl buffer. Test compounds or positive control were pre-incubated, separately, for 10 minutes, with liver microsomes (1 mg/mL protein), at 37° C., in 100 mM Tris HCl at pH 7.5. After preincubation the reaction was started by adding 1 mM NADPH (pre-equilibrated to […]) and the reaction allowed to proceed for 60 minutes. At 60 minutes, a 50 μL aliquot was removed and quenched with 200 uL of acetonitrile containing a mixture of internal standards (Tolbutamide (500 ng/mL) and Telmistartan (500 ng/mL)) and vortexed then centrifuged at 4000 rmp for 10 minutes (Eppendorf 5810R). The supernatant was transferred to a 96 well plate for LC-MS/MS analysis.
An LC-MS/MS method was devised for the test compounds and the control, using a AB Sciex API 4000 system coupled to a NEXAR™ UHPLC (Shimadzu) system. Analytes were separated on a Phenomenex Kinetex C18 column (50×2.1 mm, 5 μm) using a gradient that was appropriate for each compound, at a flow rate of 1 ml/minute, utilizing a mobile phase of 0.1% formic acid in MILLI-Q™ water (A) and 0.1% formic acid in acetonitrile (B). The MS instrument was operated in positive mode (ESI+)/negative (ESI−). The multiple reaction monitoring (MRM) transition for test and control compounds was used for the LC-MS/MS analysis. MRM transitions for control compound 7-ethoxycoumarinm were Quadropole 1: 191.0, Quadropole 3: 163.0, dwell time: 75 msec, using curtain gas settings of 5 V, ion-spray voltage of 5500 V, temperature of 50° C. and gas settings for nebulizer and auxiliary set to 30 and 40 psi, respectively. The interface heater was kept on. Entrance potential and collision cell exit potential were varied to tune for a specific compound.
Using a suitable LC-MS/MS method, the percentage of drug remaining at 60 minutes ([…]) was assessed by comparing the average analyte to internal standard area ratio at 60 minutes to the average analyte to internal standard area ratio at 0 time control, as a percentage, from a 5 to 10 μL sample injection.
According to the above assay, the representative compounds listed in Table 8 below were active in the Human liver microsome assay at […] and the % of drug remaining after 60 minutes (PDR60), in the presence of NADPH, was assessed by LC-MS/MS. Average PDR60 for the standard compound, 7-ethoxycoumarin was <=65% in the presence of NADPH. Scoring for the test compounds, in the presence of NADPH, was as follows: “A” represents a PDR^60 of 81 to 100%, “B” represents a PDR^60 of 61 to 80%, “C” represents a PDR^60 of 31 to 60% and “D” represents a PDR^60 of 0 to 30%.

Row | Scoring (% of drug remaining after 60 minutes, PDR60) [1] | Compound | EC50 (Rat DRG) [µM] | Scoring (% protection from 0-60 min) (Mice (male, C57Bl/6)) | IC50 (T cells) [µM]
1 | – | C[C@@]12CCC[C@H]1[C@H](CO)[C@@H]([C@@]1(C)Cc3cn[nH]c3C[C@@H]1CO)CC2 [Ia-27, ((3aS,4S,5S,7aS)-5-((5R,6S)-6-(hydroxymethyl)-5-methyl-4,5,6,7-tetrahydro-1H-indazol-5-yl)-7a-methyloctahydro-1H-inden-4-yl)methanol] | 6 to 15 | D (a % protection of 0 to 30%) | –
2 | – | C=C1CC[C@H]2[C@H](CN)[C@@H]([C@@]3(C)Cc4c(C(F)F)n[nH]c4C[C@@H]3CO)CC[C@]12C [Ia-30, ((5R,6S)-5-((3aS,4R,5S,7aS)-4-(aminomethyl)-7a-methyl-1-methyleneoctahydro-1H-inden-5-yl)-3-(difluoromethyl)-5-methyl-4,5,6,7-tetrahydro-1H-indazol-6-yl)methanol] | – | – | 6 to 15
3 | B (a PDR^60 of 61 to 80%) | C[C@@]12CCC[C@H]1[C@H](CN)[C@@H]([C@@]1(C)Cc3cn[nH]c3C[C@@H]1CO)CC2 [Ia-33, ((5R,6S)-5-((3aS,4S,5S,7aS)-4-(aminomethyl)-7a-methyloctahydro-1H-inden-5-yl)-5-methyl-4,5,6,7-tetrahydro-1H-indazol-6-yl)methanol] | 6 to 15 | C (a % protection of 31 to 60%) | –
4 | C (a PDR^60 of 31 to 60%) | CC[C@H]1CC[C@H]2[C@H](CN)[C@@H]([C@@]3(C)Cc4cn[nH]c4C[C@@H]3CO)CC[C@]12C [Ia-29, ((5R,6S)-5-((1S,3aS,4S,5S,7aR)-4-(aminomethyl)-1-ethyl-7a-methyloctahydro-1H-inden-5-yl)-5-methyl-4,5,6,7-tetrahydro-1H-indazol-6-yl)methanol] | 6 to 15 | D (a % protection of 0 to 30%) | –
5 | – | CC(C)CCC[C@@H](C)[C@H]1CC[C@H]2[C@H](CNCc3ccc4c(c3)OC(F)(F)O4)[C@@H]([C@@]3(C)Cc4cn[nH]c4C[C@@H]3CO)CC[C@]12C [Ia-7, ((5R,6S)-5-((1R,3aS,4S,5S,7aR)-4-((((2,2-difluorobenzo[d][1,3]dioxol-5-yl)methyl)amino)methyl)-7a-methyl-1-((R)-6-methylheptan-2-yl)octahydro-1H-inden-5-yl)-5-methyl-4,5,6,7-tetrahydro-1H-indazol-6-yl)methanol] | – | – | < 2
6 | – | C=C1CC[C@H]2[C@H](CN)[C@@H]([C@@]3(C)Cc4c(C(F)(F)F)n[nH]c4C[C@@H]3CO)CC[C@]12C [Ia-31, ((5R,6S)-5-((3aS,4R,5S,7aS)-4-(aminomethyl)-7a-methyl-1-methyleneoctahydro-1H-inden-5-yl)-5-methyl-3-(trifluoromethyl)-4,5,6,7-tetrahydro-1H-indazol-6-yl)methanol] | – | – | 2 to 6
7 | A (a PDR^60 of 81 to 100%) | C=C1CC[C@H]2[C@H](CN)[C@@H]([C@@]3(C)Cc4conc4C[C@@H]3CO)CC[C@]12C [Ig-1, ((5R,6S)-5-((3aS,4R,5S,7aS)-4-(aminomethyl)-7a-methyl-1-methyleneoctahydro-1H-inden-5-yl)-5-methyl-4,5,6,7-tetrahydrobenzo[c]isoxazol-6-yl)methanol] | 6 to 15 | C (a % protection of 31 to 60%) | –
8 | D (a PDR^60 of 0 to 30%) | C=C1CC[C@H]2[C@H](CN)[C@@H]([C@@]3(C)Cc4cnn(-c5ccccc5)c4C[C@@H]3CO)CC[C@]12C [Ia-8, ((5R,6S)-5-((3aS,4R,5S,7aS)-4-(aminomethyl)-7a-methyl-1-methyleneoctahydro-1H-inden-5-yl)-5-methyl-1-phenyl-4,5,6,7-tetrahydro-1H-indazol-6-yl)methanol] | 2 to 6 | D (a % protection of 0 to 30%) | –
9 | D (a PDR^60 of 0 to 30%) | C=C1CC[C@H]2[C@H](CNCc3ccc4c(c3)OC(F)(F)O4)[C@@H]([C@@]3(C)Cc4cn[nH]c4C[C@@H]3CO)CC[C@]12C [Ia-3, ((5R,6S)-5-((3aS,4R,5S,7aS)-4-((((2,2-difluorobenzo[d][1,3]dioxol-5-yl)methyl)amino)methyl)-7a-methyl-1-methyleneoctahydro-1H-inden-5-yl)-5-methyl-4,5,6,7-tetrahydro-1H-indazol-6-yl)methanol] | 2 to 6 | – | < 2
10 | A (a PDR^60 of 81 to 100%) | C=C1[C@@H](O)C[C@H]2[C@H](CO)[C@@H]([C@@]3(C)Cc4cn[nH]c4C[C@@H]3CO)CC[C@]12C [Ia-66, (2S,3aS,4R,5S,7aS)-4-(hydroxymethyl)-5-((5R,6S)-6-(hydroxymethyl)-5-methyl-4,5,6,7-tetrahydro-1H-indazol-5-yl)-7a-methyl-1-methyleneoctahydro-1H-inden-2-ol] | > 15 | D (a % protection of 0 to 30%) | –
11 | B (a PDR^60 of 61 to 80%) | C[C@H]1CC[C@H]2[C@H](CN)[C@@H]([C@@]3(C)Cc4cn[nH]c4C[C@@H]3CO)CC[C@]12C [Ia-34, ((5R,6S)-5-((1S,3aS,4S,5S,7aR)-4-(aminomethyl)-1,7a-dimethyloctahydro-1H-inden-5-yl)-5-methyl-4,5,6,7-tetrahydro-1H-indazol-6-yl)methanol] | 6 to 15 | C (a % protection of 31 to 60%) | –
